Reference: patent US20240327397A1, “Pesticidally Active Fused Bicyclic Heteroaromatic Compounds” (SYNGENTA CROP PROTECTION AG, priority 2021, published 2024)

How the values were obtained:
Type in all cases: in vivo
[1] = tested on: Diabrotica Balteata (Corn Root Worm); test: Example B2: Diabrotica balteata, sprayed maize sprouts on agar, L2 larvae; details: 96 h, application rate 200 ppm, 4 days after infestation, versus untreated, read-out: effect in at least one of the two categories (mortality or growth inhibition)
Procedure: Example B2: Diabrotica Balteata (Corn Root Worm)
Maize sprouts placed onto an agar layer in 24-well microtiter plates were treated with aqueous test solutions prepared from 10'000 ppm DMSO stock solutions by spraying. After drying, the plates were infested with L2 larvae (6 to 10 per well). The samples were assessed for mortality and growth inhibition in comparison to untreated samples 4 days after infestation.

[2] = tested on: Plutella xylostella (Diamond Back Moth); test: Example B3: Plutella xylostella, artificial diet in 24-well plates, eggs; details: 192 h, application rate 200 ppm, 8 days after infestation, versus untreated, read-out: effect in at least one of the two categories (mortality or growth inhibition)
Procedure: Example B3: Plutella xylostella (Diamond Back Moth)
24-well microtiter plates with artificial diet were treated with aqueous test solutions prepared from 10'000 ppm DMSO stock solutions by pipetting. After drying, Plutella eggs were pipetted through a plastic stencil onto a gel blotting paper and the plate was closed with it. The samples were assessed for mortality and growth inhibition in comparison to untreated samples 8 days after infestation.

[3] = tested on: Spodoptera littoralis (Eqyptian Cotton Leaf Worm); test: Example B4: Spodoptera littoralis, sprayed cotton leaf discs, L1 larvae; details: foliar, 72 h, application rate 200 ppm, 3 days after infestation, versus untreated, read-out: control (at least one of mortality, anti-feedant effect, growth inhibition)
Procedure: Example B4: Spodoptera littoralis (Eqyptian Cotton Leaf Worm)
Cotton leaf discs were placed onto agar in 24-well microtiter plates and sprayed with aqueous test solutions prepared from 10'000 ppm DMSO stock solutions. After drying the leaf discs were infested with five L1 larvae. The samples were assessed for mortality, anti-feeding effect, and growth inhibition in comparison to untreated samples 3 days after infestation. Control of Spodoptera littoralis by a test sample is given when at least one of the categories mortality, anti-feedant effect, and growth inhibition is higher than the untreated sample.

[4] = tested on: Frankliniella occidentalis (Western Flower Thrips); test: Example B5: Frankliniella occidentalis, feeding/contact activity, sunflower leaf discs; details: foliar, 168 h, application rate 200 ppm, population of mixed ages, 7 days after infestation
Procedure: Example B5: Frankliniella occidentalis (Western Flower Thrips). Feedinq/Contact Activity
Sunflower leaf discs were placed on agar in 24-well microtiter plates and sprayed with aqueous test solutions prepared from 10'000 DMSO stock solutions. After drying the leaf discs were infested with a Frankliniella population of mixed ages. The samples were assessed for mortality 7 days after infestation.

[5] = tested on: Chilo suppressalis (Striped Rice Stemborer); test: Example B1: Chilo suppressalis, artificial diet in 24-well plates, L2 larvae; details: 144 h, application rate 200 ppm, 6 days after infestation, versus untreated, read-out: control (at least one of mortality, anti-feedant effect, growth inhibition)
Procedure: Example B1: Chilo suppressalis (Striped Rice Stemborer)
24-well microtiter plates with artificial diet were treated with aqueous test solutions prepared from 10'000 ppm DMSO stock solutions by pipetting. After drying, the plates were infested with L2 larvae (6-8 per well). The samples were assessed for mortality, anti-feeding effect, and growth inhibition in comparison to untreated samples 6 days after infestation. Control of Chilo suppressalis by a test sample is given when at least one of the categories mortality, anti-feedant effect, and growth inhibition is higher than the untreated sample.

[6] = tested on: Myzus persicae (Green Peach Aphid); test: Example B7: Myzus persicae, intrinsic activity, sucrose solution under Parafilm; details: 120 h, test rate 12 ppm, 5 days after infestation
Source text: Example B7: Myzus persicae (Green Peach Aphid). Intrinsic Activity
Test compounds prepared from 10'000 ppm DMSO stock solutions were applied by pipette into 24-well microtiter plates and mixed with sucrose solution. The plates were closed with a stretched Parafilm. A plastic stencil with 24 holes was placed onto the plate and infested pea seedlings were placed directly on the Parafilm. The infested plate was closed with a gel blotting paper and another plastic stencil and then turned upside down. The samples were assessed for mortality 5 days after infestation.

[7] = tested on: Myzus persicae (Green Peach Aphid); test: Example B6: Myzus persicae, feeding/contact activity, sunflower leaf discs; details: foliar, 144 h, application rate 200 ppm, population of mixed ages, 6 days after infestation
Procedure: Example B6: Myzus persicae (Green Peach Aphid). Feedinq/Contact Activity
Sunflower leaf discs were placed onto agar in a 24-well microtiter plate and sprayed with aqueous test solutions prepared from 10'000 ppm DMSO stock solutions. After drying, the leaf discs were infested with an aphid population of mixed ages. The samples were assessed for mortality 6 days after infestation.

C[C@H](NC1=NS(C)(=O)=Nc2c(Br)cc(Br)cc21)c1ncnn1-c1ncccn1 (stereo partly drawn) [P1, 8,10-dibromo-3-methyl-3-oxo-N-[(1S)-1-(2-pyrimidin-2-yl-1,2,4-triazol-3-yl)ethyl]-3λ^6-thia-2,4-diazabicyclo[4.4.0]deca-1(6),2,4,7,9-pentaen-5-amine]
≥ 80%: percent effect (mortality or growth inhibition) at 200 ppm [1] | percent effect (mortality or growth inhibition) at 200 ppm [2] | percent control (mortality, anti-feedant effect or growth inhibition) at 200 ppm [3] | mortality at 200 ppm [4] | percent control (mortality, anti-feedant effect or growth inhibition) at 200 ppm [5] | mortality at 12 ppm [6]

C[C@H](NC1=NS(C)(=O)=Nc2c(Br)cc(Br)cc21)c1nccnc1-c1cnccn1 (stereo partly drawn) [P10, 8,10-dibromo-3-methyl-3-oxo-N-[(1S)-1-(3-pyrazin-2-ylpyrazin-2-yl)ethyl]-3λ^6-thia-2,4-diazabicyclo[4.4.0]deca-1(6),2,4,7,9-pentaen-5-amine]
≥ 80%: percent effect (mortality or growth inhibition) at 200 ppm [1] | mortality at 200 ppm [7] | percent effect (mortality or growth inhibition) at 200 ppm [2] | percent control (mortality, anti-feedant effect or growth inhibition) at 200 ppm [3] | mortality at 200 ppm [4] | percent control (mortality, anti-feedant effect or growth inhibition) at 200 ppm [5] | mortality at 12 ppm [6]

C[C@H](NC1=NS(C)(=O)=Nc2c(Cl)cc(C(F)(F)F)cc21)c1ncnn1-c1ncccn1 (stereo partly drawn) [P13, 10-chloro-3-methyl-3-oxo-N-[(1S)-1-(2-pyrimidin-2-yl-1,2,4-triazol-3-yl)ethyl]-8-(trifluoromethyl)-3λ^6-thia-2,4-diazabicyclo[4.4.0]deca-1(6),2,4,7,9-pentaen-5-amine]
≥ 80%: percent effect (mortality or growth inhibition) at 200 ppm [1] | percent effect (mortality or growth inhibition) at 200 ppm [2] | percent control (mortality, anti-feedant effect or growth inhibition) at 200 ppm [3] | mortality at 200 ppm [4] | mortality at 12 ppm [6]

C[C@H](NC1=NS(C)(=O)=Nc2c1cc(Cl)cc2C(F)(F)F)c1ncnn1-c1ccc(C#N)cn1 (stereo partly shown) [P16]
≥ 80%: percent effect (mortality or growth inhibition) at 200 ppm [1] | percent effect (mortality or growth inhibition) at 200 ppm [2] | percent control (mortality, anti-feedant effect or growth inhibition) at 200 ppm [3] | percent control (mortality, anti-feedant effect or growth inhibition) at 200 ppm [5] | mortality at 12 ppm [6]

C[C@H](NC1=NS(C)(=O)=Nc2c1cc(Cl)cc2C(F)(F)F)c1ncnn1-c1ncccn1 (stereo partly drawn) [P18, 8-chloro-3-methyl-3-oxo-N-[(1S)-1-(2-pyrimidin-2-yl-1,2,4-triazol-3-yl)ethyl]-10-(trifluoromethyl)-3λ^6-thia-2,4-diazabicyclo[4.4.0]deca-1(6),2,4,7,9-pentaen-5-amine]
≥ 80%: percent effect (mortality or growth inhibition) at 200 ppm [1] | percent effect (mortality or growth inhibition) at 200 ppm [2] | percent control (mortality, anti-feedant effect or growth inhibition) at 200 ppm [3] | percent control (mortality, anti-feedant effect or growth inhibition) at 200 ppm [5] | mortality at 12 ppm [6]
